In general, koff refers to a measure of how fast the partners let go of each other.

In PMC8705818, “Experimental Characterization of the Interaction between the N-Terminal SH3 Domain of Crkl and C3G” (International Journal of Molecular Sciences, 2021) one finds koff data, which are given here for two compounds.

Peptide text beside a SMILES is read from it. * marks the point of attachment. Dansyl = CN(C)c1cccc2c(S(=O)(=O)*)cccc12

In one assay the target is T1, N-SH3 D141A (Crkl) (Homo sapiens, UniProt P46109, D141A).
T1 construct: The construct encoding the N-SH3 domain of Crkl was subcloned in a pET28b+ plasmid vector; His-tag; made in house; host or cells: E. coli BL21
Kind of assay: Stopped-flow displacement, N-SH3 D141A:dansyl-C3G277–296 complex. Format: binding. To be noted: Hepes 50 mM pH 7.0 + 20% w/v sucrose, 10 °C. As for the experimental part: To further investigate this aspect, we resorted to performing displacement experiments, targeted to the direct calculation of microscopic dissociation rate constant koff. […] To test this and to slow down the diffusion of molecules, we repeated the experiment increasing the viscosity of the solution adding 20% w/v sucrose to the buffer Hepes 50 mM pH 7.0. Although the trace was satisfactorily fitted with a single-exponential equation, the koff calculated is 800 ± 30 s^−1, a value that is far beyond the resolution capability of the stopped-flow, a consistent part of the reaction occurring in the dead time of the instrument. Based on the calculated affinity of D141A variant for C3G in the absence of sucrose, this dramatic increase in koff might be accompanied by a strong increase in kon.
Kinetic binding experiments were performed on a single-mixing SX-18 stopped-flow instrument (Applied Photophysics), by mixing a constant concentration (0.5 μM) of C3G dansylated versus increasing concentrations of N-SH3 at 10 °C. Ionic strength dependence of wt N-SH3 was performed with concentrations ranging from 1 to 5 µM for 0 M NaCl condition and from 0.5 to 5 µM for 0.15 M, 0.3 M, 0.5 M and 1 M NaCl, buffer Hepes 50 mM pH 7.0. The excitation wavelength was 280 nm, and fluorescence was collected using a 455 nm cut-off filter. […]

Assay [1] addresses dansylated C3G_(277–296) peptide. Kind of assay: stopped-flow displacement kinetics; preincubated complex of D141A N-SH3 (2 µM) and dansyl-C3G (10 µM) mixed with excess nondansylated C3G (50 µM); Hepes 50 mM pH 7.0 with 20% w/v sucrose.

T1 sequence (P46109 123-183 D141A limits assumed): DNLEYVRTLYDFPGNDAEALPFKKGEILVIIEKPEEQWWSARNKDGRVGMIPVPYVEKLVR

In the case of `CC(C)C[C@H](NC(=O)[C@H](C)NC(=O)[C@@H]1CCCN1C(=O)[C@@H]1CCCN1C(=O)[C@@H]1CCCN1C(=O)[C@H](CO)NC(=O)[C@H](CC(N)=O)NC(=O)[C@H](CC(=O)O)NC(=O)[C@@H](NC(=O)[C@@H](NS(=O)(=O)c1cccc2c(N(C)C)cccc12)C(C)C)C(C)C)C(=O)N1CCC[C@H]1C(=O)N1CCC[C@H]1C(=O)N[C@@H](CCCCN)C(=O)N[C@@H](CCCCN)C(=O)N[C@@H](CCCNC(=N)N)C(=O)N[C@@H](CCC(N)=O)C(=O)N[C@@H](CO)C(=O)N[C@@H](C)C(=O)N1CCC[C@H]1C(=O)N[C@@H](CO)C(=O)O` [dansyl-C3G277–296] (Dansyl-VVDNSPPPALPPKKRQSAPS-OH), the off-rate (koff) on N-SH3 D141A (Crkl) was found to be 800 ± 30 s⁻¹.
For “N-SH3 domain of Crkl, D141A variant (domain or fragment)”, the koff in assay [1] was 800 s⁻¹.
